According to publication PMC9848300, “Discovery of novel enasidenib analogues targeting inhibition of mutant isocitrate dehydrogenase 2 as antileukaemic agents” (Journal of Enzyme Inhibition and Medicinal Chemistry, 2023):

How the values were obtained:
Assay type in all cases: cell-based
[1] = system: HL-60(TB); assay: NCI 60 antitumor screening (single dose / five doses); conditions: Homo sapiens; HL-60(TB) (leukaemia), single dose 10 μM; read-out: Growth inhibition percentage (GI %)
[2] = system: MOLT-4; assay: as above; conditions: Homo sapiens; MOLT-4 (leukaemia), single dose 10 μM; read-out: Growth inhibition percentage (GI %)
[3] = system: SR; assay: as above; conditions: Homo sapiens; SR (leukaemia), single dose 10 μM; read-out: Growth inhibition percentage (GI %)
[4] = system: EKVX; assay: as above; conditions: Homo sapiens; EKVX (non-small cell lung cancer), single dose 10 μM; read-out: Growth inhibition percentage (GI %)
[5] = system: NCI-H23; assay: NCI 60 antitumor screening (single dose); conditions: Homo sapiens; NCI-H23 (non-small cell lung cancer), single dose 10 μM; read-out: Growth inhibition percentage (GI %)
Procedure, shortened: (§1)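 GI% derived as 100 − G% from triplicate growth measurements in the NCI 60 human tumour panel, compound 10 μM, single dose, per NCI protocol.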

[6] = system: OVCAR-4; assay: NCI 60 antitumor screening (single dose); conditions: Homo sapiens; OVCAR-4 (ovarian cancer), single dose 10 μM; read-out: Growth inhibition percentage (GI %)
Procedure, shortened: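 Values are GI% (100 − G%) from the NCI 60-line single-dose screen, compound at 10 μM.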

[7] = system: SK-OV-3; assay: NCI 60 antitumor screening (single dose); conditions: Homo sapiens; SK-OV-3 (ovarian cancer), single dose 10 μM; read-out: Growth inhibition percentage (GI %)
Procedure, shortened: as §1

[8] = system: COLO 205; assay: NCI 60 antitumor screening (single dose / five doses); conditions: Homo sapiens; COLO 205 (colon cancer), single dose 10 μM; read-out: Growth inhibition percentage (GI %)
[9] = system: HCT-116; assay: as above; conditions: Homo sapiens; HCT-116 (colon cancer), single dose 10 μM; read-out: Growth inhibition percentage (GI %)
[10] = system: HCT-15; assay: as above; conditions: Homo sapiens; HCT-15 (colon cancer), single dose 10 μM; read-out: Growth inhibition percentage (GI %)
[11] = system: SF-295; assay: as above; conditions: Homo sapiens; SF-295 (CNS cancer), single dose 10 μM; read-out: Growth inhibition percentage (GI %)
[12] = system: SNB-75; assay: as above; conditions: Homo sapiens; SNB-75 (CNS cancer), single dose 10 μM; read-out: Growth inhibition percentage (GI %)
[13] = system: LOX IMVI; assay: as above; conditions: Homo sapiens; LOX IMVI (melanoma), single dose 10 μM; read-out: Growth inhibition percentage (GI %)
[14] = system: MDA-MB-435; assay: as above; conditions: Homo sapiens; MDA-MB-435 (melanoma), single dose 10 μM; read-out: Growth inhibition percentage (GI %)
[15] = system: SK-MEL-2; assay: as above; conditions: Homo sapiens; SK-MEL-2 (melanoma), single dose 10 μM; read-out: Growth inhibition percentage (GI %)
[16] = system: SK-MEL-28; assay: as above; conditions: Homo sapiens; SK-MEL-28 (melanoma), single dose 10 μM; read-out: Growth inhibition percentage (GI %)
[17] = system: SK-MEL-5; assay: as above; conditions: Homo sapiens; SK-MEL-5 (melanoma), single dose 10 μM; read-out: Growth inhibition percentage (GI %)
[18] = system: UACC-62; assay: as above; conditions: Homo sapiens; UACC-62 (melanoma), single dose 10 μM; read-out: Growth inhibition percentage (GI %)
[19] = system: IGROV1; assay: as above; conditions: Homo sapiens, IGROV-1; IGROV1 (ovarian cancer), single dose 10 μM; read-out: Growth inhibition percentage (GI %)
[20] = system: NCI/ADR-RES; assay: as above; conditions: Homo sapiens; NCI/ADR-RES (ovarian cancer), single dose 10 μM; read-out: Growth inhibition percentage (GI %)
[21] = system: A498; assay: as above; conditions: Homo sapiens; A498 (renal cancer), single dose 10 μM; read-out: Growth inhibition percentage (GI %)
[22] = system: RXF 393; assay: as above; conditions: Homo sapiens; RXF 393 (renal cancer), single dose 10 μM; read-out: Growth inhibition percentage (GI %)
[23] = system: SN 12C; assay: as above; conditions: Homo sapiens, SN12C; SN 12C (renal cancer), single dose 10 μM; read-out: Growth inhibition percentage (GI %)
[24] = system: DU-145; assay: as above; conditions: Homo sapiens; DU-145 (prostate cancer), single dose 10 μM; read-out: Growth inhibition percentage (GI %)
[25] = system: MDA-MB-231/ATCC; assay: as above; conditions: Homo sapiens; MDA-MB-231/ATCC (breast cancer), single dose 10 μM; read-out: Growth inhibition percentage (GI %)
[26] = system: BT-549; assay: as above; conditions: Homo sapiens; BT-549 (breast cancer), single dose 10 μM; read-out: Growth inhibition percentage (GI %)
[27] = system: MDA-MB-468; assay: as above; conditions: Homo sapiens; MDA-MB-468 (breast cancer), single dose 10 μM; read-out: Growth inhibition percentage (GI %)
[28] = system: 60 human subpanel cancer cell lines; assay: NCI 60 antitumor screening, mean over the panel (single dose); conditions: mean over 60 cancer cell lines, single dose 10 μM
Procedure, shortened: as §1

O=C1Nc2ccc(Cl)cc2/C1=N\Nc1nc(N/N=C2/C(=O)Nc3ccc(Cl)cc32)nc(N2CCOCC2)n1 [compound 8b, (3E)-5-Chloro-3-[2–(4-{2-[(3E)-5-chloro-2-oxo-2,3-dihydro-1H-indol-3-ylidene]hydrazin-1-yl}6-(morpholin-4-yl)-1,3,5-triazin-2-yl)hydrazin-1-ylidene]-2,3-dihydro-1H-indol-2-one]
inhibition at 10 µM [1]: 27.8%
inhibition at 10 µM [2]: 37.5%
inhibition at 10 µM [3]: 70.8%
inhibition at 10 µM [4]: 14.8%
inhibition at 10 µM [5]: 82.8%
inhibition at 10 µM [6]: 21.3%
inhibition at 10 µM [7]: 44.5%
inhibition at 10 µM [8]: 51.3%
inhibition at 10 µM [9]: 54.6%
inhibition at 10 µM [10]: 8.4%
inhibition at 10 µM [11]: 54.4%
inhibition at 10 µM [12]: 101%
inhibition at 10 µM [13]: 76.8%
inhibition at 10 µM [14]: 36.5%
inhibition at 10 µM [15]: 34.7%
inhibition at 10 µM [16]: 45%
inhibition at 10 µM [17]: 53.9%
inhibition at 10 µM [18]: 48.4%
inhibition at 10 µM [19]: 45%
inhibition at 10 µM [20]: 1.85%
inhibition at 10 µM [21]: 78.4%
inhibition at 10 µM [22]: 86.3%
inhibition at 10 µM [23]: 56.1%
inhibition at 10 µM [24]: 11.6%
inhibition at 10 µM [25]: 63.7%
inhibition at 10 µM [26]: 106%
inhibition at 10 µM [27]: 76.4%
Mean GI % [28]: 47.89%
